Test results published in publication PMC5562523 (Cell chemical biology, 2017).
“Also recorded” adds a separate entry of the source.

Assays:
S. aureus = assay type: cell-based; settings: 10 – 80 μM, pH 7.0 and 5.7, 6 hours
Mtb [1] = assay type: cell-based
Mtb [2] = test: Bactericidal activity of AC2P36; assay type: cell-based, Mycobacterium tuberculosis strain CDC1551
Mtb cytoplasmic pH = test: Cytoplasmic pH measurement; assay type: cell-based; settings: pH 5.7, over 24 hours
[3] = test system: Mtb reporter strain CDC1551::roGFP-R12; assay type: cell-based, Mycobacterium tuberculosis; settings: pH 7.0 and 5.7, 0.1 – 20 μM, 6 h
Mtb [4] = test: Fractional killing and potentiation of antimicrobials; assay type: cell-based, Mycobacterium tuberculosis; settings: pH 5.7, 3 days; for reduction in bacterial growth relative to the initial inoculum, compound alone: 10 μM AC2P36 alone or 10 μM INH alone
Mtb [5] = test: Menadione sensitivity assay; assay type: cell-based, Mycobacterium tuberculosis; settings: pH 5.7, dose response of AC2P36 and menadione, six days, OD
Mtb [6] = test: Intracellular reactive oxygen species; assay type: cell-based, Mycobacterium tuberculosis
Mtb free thiol pools = test: Free thiol pools in Mtb; assay type: cell-based; settings: for free thiol pools relative to DMSO/untreated control: pH 7.0 and 5.7, 24 hours, 2 or 20 μM AC2P36, 20 μM auranofin, INH
in vitro = assay type: cell-based; settings: mouse
Staphylococcus aureus = assay type: cell-based; settings: neutral and acidic pH
Enterococcus faecalis = assay type: cell-based; settings: neutral and acidic pH
Escherichia coli = assay type: cell-based; settings: neutral and acidic pH
Pseudomonas auruginosa = assay type: cell-based; settings: neutral and acidic pH
Proteus vulgaris = assay type: cell-based; settings: neutral and acidic pH
S. aureus free thiols = test: Free thiols in S. aureus; assay type: cell-based, Staphylococcus aureus strain Newman; settings: 20 μM, pH 5.7
S. aureus (ΔsodAΔsodM) = assay type: cell-based; settings: pH 7.0 and 5.7
Mtb [7] = test: Protection from AC2P36 by ROS scavenging agents; assay type: cell-based, Mycobacterium tuberculosis; settings: pH 5.7, dose response of scavenger, six days, OD

SMILES: O[C@@H](CS)[C@@H](O)CS (racemic) [DTT, Dithiothreitol, reference compound]
- ROS accumulation in S. aureus (S. aureus): had no effect on ROS accumulation

SMILES: COc1ccc(NC(=O)c2nc(S(C)(=O)=O)ncc2Cl)cc1Cl [AC2P36, 5-chloro-N-(3-chloro-4-methoxyphenyl)-2-methylsulfonylpyrimidine-4-carboxamide]
- selectivity at acidic pH (pH 5.7 vs pH 7.0 EC50) (Mtb [1]): ~ 10 fold
- concentrations at which Mtb growth is slowed/inhibited at neutral pH (Mtb [1]; pH 7.0): > 30 μM
- reduction of viability relative to the DMSO treated control (Mtb [2]; 20 μM AC2P36, pH 5.7, by 7 days): ~ 100 fold
- concentrations at which bactericidal activity is observed (Mtb [2]; pH 5.7, 6 days of treatment): > 10 µM
- effect on Mtb cytoplasmic pH (Mtb cytoplasmic pH): does not modulate Mtb cytoplasmic pH
- cytoplasmic redox status (roGFP) [3]: leads to a reduced cytoplasm in a dose-dependent and pH-independent manner; also recorded: promotes a reduced cytoplasm in a dose-dependent and pH-independent manner
- synergy/potentiation in combination with rifampin (Mtb [4]; 10 μM AC2P36 + 0.3 μM rifampin): no significant synergy; also recorded: No potentiation was observed
- reduction in bacterial growth relative to the initial inoculum, compound alone (Mtb [4]): approximately 2 fold
- synergy with menadione (Mtb [5]): did not synergize
- accumulation of intracellular ROS (Mtb [6]; 2 or 20 μM AC2P36, pH 7.0 and 5.7, 24 hours): dose-dependent and pH-dependent accumulation of reactive oxygen species; also recorded: significant induction of ROS
- depletion of free thiols vs DMSO treated samples (Mtb free thiol pools; 20 μM AC2P36, pH 5.7, 24 hours): ~ 16 fold
- free thiol concentration after treatment (Mtb free thiol pools; 20 μM AC2P36, pH 5.7, 24 hours (DMSO ~1.3 μM)): ~ 80 nM
- reduction of free thiols (Mtb free thiol pools; 20 μM AC2P36, pH 7.0, 24 hours): reduced by one third
- free thiol pools relative to DMSO/untreated control (Mtb free thiol pools): significantly depleted thiol pools at both pH 7.0 and 5.7
- CC50 at 3 days (in vitro): 17 µM
- susceptibility of S. aureus to AC2P36 (Staphylococcus aureus): exhibit susceptibility to AC2P36
- susceptibility of E. faecalis to AC2P36 (Enterococcus faecalis): exhibit susceptibility to AC2P36
- susceptibility of E. coli to AC2P36 (Escherichia coli): relatively unaffected
- susceptibility of P. aeruginosa to AC2P36 (Pseudomonas auruginosa): relatively unaffected
- susceptibility of P. vulgaris to AC2P36 (Proteus vulgaris): relatively unaffected
- ROS accumulation in S. aureus (S. aureus): enhanced ROS accumulation in a dose-dependent manner
- reduction in free thiols in S. aureus (S. aureus free thiols): ~ 30%
- enhanced sensitivity of S. aureus (ΔsodAΔsodM) to AC2P36 compared to WT (S. aureus (ΔsodAΔsodM)): ~ 2 fold

SMILES: CC(C)/N=c1\cc2n(-c3ccc(Cl)cc3)c3ccccc3nc-2cc1Nc1ccc(Cl)cc1 [Clofazimine, clofazimine, reference compound]
- effect on Mtb growth, compound alone (Mtb [4]; 100 μM clofazimine alone): did not impact Mtb growth

SMILES: NNC(=O)c1ccncc1 [INH, isoniazid, reference compound]
- reduction in bacterial growth relative to the initial inoculum, compound alone (Mtb [4]): approximately 2 fold
- free thiol pools relative to DMSO/untreated control (Mtb free thiol pools): comparable thiol concentrations as the untreated cultures

SMILES: CC(=O)N[C@@H](CS)C(=O)O [NAC, N-acetylcysteine]
- protection of Mtb from 32 μM AC2P36 (Mtb [7]): protects Mtb from killing by 32 μM AC2P36 in a dose dependent manner

SMILES: CC(=O)OC[C@H]1O[C@@H]([S-])[C@H](OC(C)=O)[C@@H](OC(C)=O)[C@@H]1OC(C)=O.CCP(CC)CC.[Au+] [auranofin, reference compound]
- free thiol pools relative to DMSO/untreated control (Mtb free thiol pools): depleted free thiols relative to the DMSO treated control
- reduction in free thiols in S. aureus (S. aureus free thiols): ~ 30%

SMILES: CN(C)C(=O)/N=N/C(=O)N(C)C [diamide, reference compound]
- enhancement in bacterial growth relative to the initial inoculum, compound alone (Mtb [4]; 1 mM diamide alone): 1.8 fold
- accumulation of intracellular ROS (Mtb [6]; 20 μM diamide, neutral pH): resists diamide treatment
- accumulation of intracellular ROS (Mtb [6]; 20 μM diamide, pH 5.7): significant increase in ROS
